In patent US20230220105A1, “TUMOR ACTIVATED T CELL ENGAGERS AND METHODS OF USE THEREOF” (Janux Therapeutics, Inc., priority 2019, published 2023):

Experiments:
neutravidin alone = neutravidin alone (Gallus gallus, UniProt P02701); assay: Phagemid ELISA, neutravidin background; assay type: binding; conditions: clonal phage displaying the peptide; ELISA signal on neutravidin alone
Protocol: The next day the deep well plates were centrifuged to separate the soluble phagemid from the E. coli cells. The phagemid containing supernatants were then combined with PBS-Tween 20 (0.05%) + BSA (1%) blocking buffer and incubated in ELISA wells containing Neutravidin captured biotin-conjugated target or Neutravidin alone. After binding at 4 degrees the plates were washed, and specifically bound phage were detected by anti-m13 HRP conjugated antibodies using standard TMB-based chromogenic ELISA procedures. Daughter plates or individual wells were subjected to standard DNA sequencing for clonal peptide sequence identification.
The next day the deep well plates were centrifuged to separate the soluble phagemid from the E. coli cells. The phagemid containing supernatants were then combined with PBS-Tween 20 (0.05%) + BSA (1%) pH neutral blocking buffer and incubated in previously TCR coated and blocked wells. After binding at 4° C. the plates were washed and specifically bound phage were detected by anti-m13 HRP conjugated antibodies using standard TMB-based chromogenic ELISA procedures (FIG. 17B). Daughter plates or individual wells were subjected to standard DNA sequencing for peptide identification.

[1] = tested on: TCR-1 binding to MAGE-A3 pMHC; assay: Inhibition of kinetic binding of TCR to its cognate pMHC (BLI); conditions: Table 3
Protocol: First, biotinylated pMHC was captured on streptavidin biosensors. Sensors were quenched using excess biocytin and then baselined in buffer. Inhibitory peptide was titrated in a two fold dilution series starting from 100 uM and pre-incubated with a constant concentration of 50 nM TCR. Peptide and TCR mixtures were then associated onto the pMHC loaded biosensor. Zero concentration of inhibitory peptide or zero concentration of TCR were used as controls. Association and dissociation signals were monitored in real-time. The maximal association signal was normalized from 100% (0 uM inhibitory peptide control) to 0% (0 nM TCR control) and plotted versus log-scale inhibitory peptide concentration.

TCR-2 = assay: Inhibitory peptide specificity evaluation (BLI); assay type: binding; conditions: 100 uM TCR on Peptide-5 saturated biosensor
Protocol: (§1) Potent inhibitory peptides were tested for TCR specific binding. […] This family of TCRs differ in sequence by point mutations in the CDR domains know to contribute to binding affinity and specificity for cognate MAGE-A3 pMHC. […] TCRs were associated at the extreme concentration of 100 uM onto the inhibitory peptide loaded biosensor. In parallel, 100 uM TCRs were associated on a blank control sensor to establish background signal related to non-specific binding of the TCRs. Association and dissociation signals were monitored in real-time.

TCR-1 = assay: Inhibitory peptide specificity evaluation (BLI); assay type: binding; conditions: 100 uM TCR on Peptide-5 saturated biosensor
Protocol: as §1

TCR-4 = assay: Inhibitory peptide specificity evaluation (BLI); assay type: binding; conditions: 100 uM TCR on Peptide-5 saturated biosensor
Protocol: as §1

TCR-3 = assay: Inhibitory peptide specificity evaluation (BLI); assay type: binding; conditions: 100 uM TCR on Peptide-5 saturated biosensor
Protocol: as §1

MAGE-A3 TCR (TCR-1) = assay: Kinetic binding of TCR to peptides (Octet BLI); conditions: Table 3; Ala mutants of Peptide-5 and controls
Protocol: BLI based kinetic binding of TCR to peptides was measured using a ForteBio Octet RED96 instrument. Biotinylated peptides were first directly captured on streptavidin biosensors. Sensors were quenched using excess biocytin and then baselined in buffer. A dilution series of TCR was made and associated onto the peptide loaded biosensor. Association and dissociation signals were monitored in real-time. Signals were fit to a 1:1 binding model in order to derive binding constants, kon and koff, as well as KD.

[2] = biological target: TCR-1 binding to MAGE-A3 pMHC; assay: Inhibition of equilibrium binding of TCR to its cognate pMHC (ELISA)
Protocol: Inhibition of TCR binding to its cognate pMHC was also measured in an ELISA format. Biotinylated pMHC was captured on neutravidin coated plates, quenched using excess biocytin, and washed. Inhibitory peptide was titrated in a half-log dilution series starting from 100 uM and pre-incubated with a constant concentration of 1 nM TCR. Inhibitory peptide and TCR mixtures were then incubated on the pMHC captured plates. A secondary HRP antibody conjugate that recognized the histag of the TCR was then used to detect the plate bound TCR. […] Dose dependent decrease of signal was indicative of peptides that compete for TCR binding to its cognate pMHC.

Chain of neutravidin alone (P02701 25-152): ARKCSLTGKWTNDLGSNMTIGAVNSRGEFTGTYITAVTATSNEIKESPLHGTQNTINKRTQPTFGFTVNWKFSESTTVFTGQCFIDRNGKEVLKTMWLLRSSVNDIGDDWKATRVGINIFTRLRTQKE

Phage ELISA NAv bkgd (neutravidin alone) | Octet BLI Competes at 100 uM [1] | binding of Peptide-5 to TCR-1 (TCR-1) | Octet BLI Binds TCR (MAGE-A3 TCR (TCR-1)) | IC50 ([2]; Table 2, 1 nM TCR) [nM] | IC50 ([2]; Table 3) [nM] | SMILES | binding of Peptide-5 to TCR-2 (TCR-2) | binding of Peptide-5 to TCR-4 (TCR-4) | binding of Peptide-5 to TCR-3 (TCR-3)
0.13 |  |  |  |  |  | CC(C)[C@H](NC(=O)[C@@H]1CSSC[C@H](NC(=O)CNC(=O)CNC(=O)CN)C(=O)N[C@@H](Cc2ccccc2)C(=O)N[C@@H](C(C)C)C(=O)N[C@@H](CO)C(=O)N2CCC[C@H]2C(=O)N[C@@H](C)C(=O)N[C@@H]([C@@H](C)O)C(=O)NCC(=O)N[C@@H](Cc2ccccc2)C(=O)N[C@@H]([C@@H](C)O)C(=O)N[C@@H](Cc2c[nH]c3ccccc23)C(=O)N1)C(=O)NCC(=O)NCC(=O)NCC(=O)NCC(=O)N[C@@H](CO)C(=O)NCCOCCOCCOCCOCCC(=O)N[C@@H](CCCCNC(=O)CCCC[C@@H]1SC[C@@H]2NC(=O)N[C@@H]21)C(N)=O [Peptide-17] |  |  | 
 | Yes | readily bound | Yes | 600 | 600 | CC(C)[C@H](NC(=O)CNC(=O)CN)C(=O)N[C@@H](CO)C(=O)N[C@H]1CSSC[C@@H](C(=O)N[C@@H](Cc2c[nH]c3ccccc23)C(=O)N[C@H](C(=O)NCC(=O)NCC(=O)NCC(=O)NCC(=O)N[C@@H](CO)C(=O)NCCOCCOCCOCCOCCC(=O)N[C@@H](CCCCNC(=O)CCCC[C@@H]2SC[C@@H]3NC(=O)N[C@@H]32)C(N)=O)[C@@H](C)O)NC(=O)[C@H](Cc2ccccc2)NC(=O)[C@H](C)NC(=O)[C@H](CCC(=O)O)NC(=O)[C@H](CC(=O)O)NC(=O)[C@H](Cc2ccc(O)cc2)NC(=O)[C@H](C(C)C)NC(=O)[C@H](CC(=O)O)NC(=O)[C@H](CCCCN)NC1=O [Peptide-5] | signal was identical to that of background | signal was identical to that of background | signal was identical to that of background
